Target: T1, BTK (Homo sapiens, UniProt Q06187)
T1 construct: endogenous in cells; host or cells: TMD-8 cells
Test: BTK degradation in TMD-8 cells, HTRF assay after 6 h treatment
Format: cell-based
Conditions: for DC50: IC50 (DC50) of BTK degradation; for Dmax: TMD8, maximum percentage of inhibition (degradation)
Outline: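 TMD-8 cells treated for 6 h with 8 compound doses in 6-fold dilution steps from a 1 mM 500× DMSO stock (0.2% DMSO), then lysed 30 min at room temperature. BTK in lysate detected by HTRF (665/620 nm) after overnight antibody incubation; DC50 from four-parameter curve fit.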

T1 sequence (Q06187 whole entry): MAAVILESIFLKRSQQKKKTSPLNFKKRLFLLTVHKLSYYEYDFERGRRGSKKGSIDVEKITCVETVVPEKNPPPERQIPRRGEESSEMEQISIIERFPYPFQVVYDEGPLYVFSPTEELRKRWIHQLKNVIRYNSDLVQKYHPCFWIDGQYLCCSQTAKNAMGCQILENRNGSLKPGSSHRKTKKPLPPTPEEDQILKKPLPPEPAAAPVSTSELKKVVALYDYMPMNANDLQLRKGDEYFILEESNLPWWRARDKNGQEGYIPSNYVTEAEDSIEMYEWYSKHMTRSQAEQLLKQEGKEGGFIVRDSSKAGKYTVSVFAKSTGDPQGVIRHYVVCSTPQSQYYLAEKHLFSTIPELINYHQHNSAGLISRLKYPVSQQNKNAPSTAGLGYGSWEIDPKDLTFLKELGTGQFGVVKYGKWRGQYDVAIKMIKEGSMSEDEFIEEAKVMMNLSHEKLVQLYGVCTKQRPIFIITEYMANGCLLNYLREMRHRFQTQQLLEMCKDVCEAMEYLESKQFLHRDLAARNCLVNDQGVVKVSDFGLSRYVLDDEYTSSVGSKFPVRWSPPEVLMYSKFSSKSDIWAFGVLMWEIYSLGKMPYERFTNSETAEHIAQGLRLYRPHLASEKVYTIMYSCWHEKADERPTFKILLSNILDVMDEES

Structure (SMILES)	DC50 [nM]	Dmax [%]
Cc1cc(-c2n[nH]c3ncc(-c4ccc(C5CCN(CCc6ccc(N7CCC(=O)NC7=O)cc6)CC5)cc4)cc23)ccc1CNC(=O)c1noc(C(C)(C)C)n1 [Example 6, 5-(tert-butyl)-N-(4-(5-(4-(1-(4-(2,4-dioxotetrahydropyrimidin-1(2H)-yl)phenethyl)piperidin-4-yl)phenyl)-1H-pyrazolo[3,4-b]pyridin-3-yl)-2-methylbenzyl)-1,2,4-oxadiazole-3-carboxamide]	2.94	97
Cc1cc(-c2n[nH]c3ncc(-c4ccc(C5CCN(CC6CCN(c7ccc(N8CCC(=O)NC8=O)cc7)CC6)CC5)cc4)cc23)c(F)cc1CNC(=O)c1nc(C(C)(C)C)no1 [Example 220, 3-(tert-butyl)-N-(4-(5-(4-(1-((1-(4-(2,4-dioxotetrahydropyrimidin-1(2H)-yl)phenyl)piperidin-4-yl)methyl)piperidin-4-yl)phenyl)-1H-pyrazolo[3,4-b]pyridin-3-yl)-5-fluoro-2-methylbenzyl)-1,2,4-oxadiazole-5-carboxamide]	3.85	–
Cc1cc(-c2n[nH]c3ncc(-c4ccc(N5CCN(CC6CCN(c7ccc(N8CCC(=O)NC8=O)cc7)CC6)CC5)cc4)cc23)ccc1CNC(=O)c1cnn(C(C)(C)C)c1 [Example 32, 1-(tert-butyl)-N-(4-(5-(4-(4-((1-(4-(2,4-dioxotetrahydropyrimidin-1(2H)-yl)phenyl)piperidin-4-yl)methyl)piperazin-1-yl)phenyl)-1H-pyrazolo[3,4-b]pyridin-3-yl)-2-methylbenzyl)-1H-pyrazole-4-carboxamide]	2.55	93.6
Cc1cc(-c2n[nH]c3ncc(-c4ccc(C5CCN(CC6CCN(c7ccc(N8CCC(=O)NC8=O)cc7)CC6)CC5)cc4)cc23)ccc1CNC(=O)c1noc(C(C)(C)C)n1 [Example 1, 5-(tert-butyl)-N-(4-(5-(4-(1-((1-(4-(2,4-dioxotetrahydropyrimidin-1(2H)-yl)phenyl)piperidin-4-yl)methyl)piperidin-4-yl)phenyl)-1H-pyrazolo[3,4-b]pyridin-3-yl)-2-methylbenzyl)-1,2,4-oxadiazole-3-carboxamide]	0.978	96.7
Cc1cc(-c2n[nH]c3ncc(-c4ccc(N5CCN(CCn6nc(C)c(C7CCC(=O)NC7=O)c6C)CC5)cc4)cc23)ccc1[C@@H](C)NC(=O)c1nc(C(C)(C)C)no1 (stereo partly drawn) [Example 196, 3-(tert-butyl)-N-((1R)-1-(4-(5-(4-(4-(2-(4-(2,6-dioxopiperidin-3-yl)-3,5-dimethyl-1H-pyrazol-1-yl)ethyl)piperazin-1-yl)phenyl)-1H-pyrazolo[3,4-b]pyridin-3-yl)-2-methylphenyl)ethyl)-1,2,4-oxadiazole-5-carboxamide]	1.05	–
Cc1cc(-c2n[nH]c3ncc(-c4ccc(CCN5CCC(c6ccc([C@@H]7CCC(=O)NC7=O)cc6)CC5)cc4)cc23)ccc1CNC(=O)c1nc(C(C)(C)C)no1 [Example 88, (S)-3-(tert-butyl)-N-(4-(5-(4-(2-(4-(4-(2,6-dioxopiperidin-3-yl)phenyl)piperidin-1-yl)ethyl)phenyl)-1H-pyrazolo[3,4-b]pyridin-3-yl)-2-methylbenzyl)-1,2,4-oxadiazole-5-carboxamide]	9.41	–
Cc1cc(-c2n[nH]c3ncc(-c4ccc(N5CCN(CCCOc6ccc(NC7CCC(=O)NC7=O)c(F)c6)CC5)cc4)cc23)ccc1[C@@H](C)NC(=O)c1noc(C(C)(C)C)n1 (stereo partly drawn) [Example 142, 5-(tert-butyl)-N-((1R)-1-(4-(5-(4-(4-(3-(4-((2,6-dioxopiperidin-3-yl)amino)-3-fluorophenoxy)propyl)piperazin-1-yl)phenyl)-1H-pyrazolo[3,4-b]pyridin-3-yl)-2-methylphenyl)ethyl)-1,2,4-oxadiazole-3-carboxamide]	6.15	–
Cc1cc(-c2n[nH]c3ncc(-c4ccc(N5CCN(C6CC(c7ccc(C8CCC(=O)NC8=O)cc7)C6)CC5)cc4)cc23)ccc1[C@@H](C)NC(=O)c1noc(C(C)(C)C)n1 (stereo partly drawn) [Example 214, 5-(tert-butyl)-N-((1R)-1-(4-(5-(4-(4-((1s,3s)-3-(4-(2,6-dioxopiperidin-3-yl)phenyl)cyclobutyl)piperazin-1-yl)phenyl)-1H-pyrazolo[3,4-b]pyridin-3-yl)-2-methylphenyl)ethyl)-1,2,4-oxadiazole-3-carboxamide]	1.3	–
Cc1cc(-c2n[nH]c3ncc(-c4ccc(N5CCN(CCc6ccc(C7CCC(=O)NC7=O)cc6)CC5)cc4)cc23)ccc1CNC(=O)c1noc(C(C)(C)C)n1 (stereo not shown) [Example 107, 5-(tert-butyl)-N-(4-(5-(4-(4-(4-(2,6-dioxopiperidin-3-yl)phenethyl)piperazin-1-yl)phenyl)-1H-pyrazolo[3,4-b]pyridin-3-yl)-2-methylbenzyl)-1,2,4-oxadiazole-3-carboxamide]	1.89	–
Cc1cc(-c2n[nH]c3ncc(-c4ccc(N5CCN(CC6CCN(c7ccc(N8CCC(=O)NC8=O)cc7)CC6)CC5)cc4)cc23)ccc1[C@@H](C)NC(=O)c1nc(C2(C)CC2)no1 [Example 213, (R)—N-(1-(4-(5-(4-(4-((1-(4-(2,4-dioxotetrahydropyrimidin-1(2H)-yl)phenyl)piperidin-4-yl)methyl)piperazin-1-yl)phenyl)-1H-pyrazolo[3,4-b]pyridin-3-yl)-2-methylphenyl)ethyl)-3-(1-methylcyclopropyl)-1,2,4-oxadiazole-5-carboxamide]	5.04	–
Cc1cc(-c2n[nH]c3ncc(-c4ccc(N5CCN(Cc6ccc(C7CCC(=O)NC7=O)c(F)c6)CC5)cc4)cc23)ccc1[C@@H](C)NC(=O)c1nc(C(C)(C)C)no1 (stereo partly drawn) [Example 215, 3-(tert-butyl)-N-((1R)-1-(4-(5-(4-(4-(4-(2,6-dioxopiperidin-3-yl)-3-fluorobenzyl)piperazin-1-yl)phenyl)-1H-pyrazolo[3,4-b]pyridin-3-yl)-2-methylphenyl)ethyl)-1,2,4-oxadiazole-5-carboxamide]	11.8	–
Cc1cc(-c2n[nH]c3ncc(-c4ccc(N5CCN(CC6CCN(c7ccc(N8CCC(=O)NC8=O)cc7)CC6)CC5)cc4)cc23)ccc1CNC(=O)c1noc(C2(C(F)(F)F)CC2)n1 [Example 42, N-(4-(5-(4-(4-((1-(4-(2,4-dioxotetrahydropyrimidin-1(2H)-yl)phenyl)piperidin-4-yl)methyl)piperazin-1-yl)phenyl)-1H-pyrazolo[3,4-b]pyridin-3-yl)-2-methylbenzyl)-5-(1-(trifluoromethyl)cyclopropyl)-1,2,4-oxadiazole-3-carboxamide]	22.8	–
Cc1cc(-c2n[nH]c3ncc(-c4ccc(N5CCN(C6CC(c7ccc([C@H]8CCC(=O)NC8=O)cc7)C6)CC5)cc4)cc23)ccc1[C@@H](C)NC(=O)c1noc(C(C)(C)C)n1 (stereo partly drawn) [Example 224, 5-(tert-butyl)-N—((R)-1-(4-(5-(4-(4-((1S,3r)-3-(4-((R)-2,6-dioxopiperidin-3-yl)phenyl)cyclobutyl)piperazin-1-yl)phenyl)-1H-pyrazolo[3,4-b]pyridin-3-yl)-2-methylphenyl)ethyl)-1,2,4-oxadiazole-3-carboxamide]	6.16	–
Cc1cc(-c2n[nH]c3ncc(-c4ccc(N5CCN(CC6CCN(c7ccc(N8CCC(=O)NC8=O)cc7)CC6)CC5)cc4)cc23)c(F)cc1CNC(=O)c1noc(C(C)(C)C)n1 [Example 100, 5-(tert-butyl)-N-(4-(5-(4-(4-((1-(4-(2,4-dioxotetrahydropyrimidin-1(2H)-yl)phenyl)piperidin-4-yl)methyl)piperazin-1-yl)phenyl)-1H-pyrazolo[3,4-b]pyridin-3-yl)-5-fluoro-2-methylbenzyl)-1,2,4-oxadiazole-3-carboxamide]	10.2	–
Cc1cc(-c2n[nH]c3ncc(-c4ccc(N5CCN(CC6CCN(c7ccc(N8CCC(=O)NC8=O)cc7)CC6)CC5)cc4)cc23)ccc1[C@@H](C)NC(=O)c1noc(C2(C)CC2)n1 [Example 109, (R)—N-(1-(4-(5-(4-(4-((1-(4-(2,4-dioxotetrahydropyrimidin-1(2H)-yl)phenyl)piperidin-4-yl)methyl)piperazin-1-yl)phenyl)-1H-pyrazolo[3,4-b]pyridin-3-yl)-2-methylphenyl)ethyl)-5-(1-methylcyclopropyl)-1,2,4-oxadiazole-3-carboxamide]	13.3	–
Cc1cc(-c2n[nH]c3ncc(-c4ccc(N5CCN(CC6CCN(c7ccc(N8CCC(=O)NC8=O)cc7)CC6)CC5)cc4)cc23)ccc1[C@@H](C)NC(=O)c1noc(C(C)(C)C)n1 [Example 37, (R)-5-(tert-butyl)-N-(1-(4-(5-(4-(4-((1-(4-(2,4-dioxotetrahydropyrimidin-1(2H)-yl)phenyl)piperidin-4-yl)methyl)piperazin-1-yl)phenyl)-1H-pyrazolo[3,4-b]pyridin-3-yl)-2-methylphenyl)ethyl)-1,2,4-oxadiazole-3-carboxamide]	2.52	93.4
Cc1cc(-c2n[nH]c3nc(-c4ccc(N5CCN(CC6CCN(c7ccc(N8CCC(=O)NC8=O)cc7)CC6)CC5)cc4)ccc23)ccc1[C@@H](C)NC(=O)c1noc(C(C)(C)C)n1 [Example 157, (R)-5-(tert-butyl)-N-(1-(4-(6-(4-(4-((1-(4-(2,4-dioxotetrahydropyrimidin-1(2H)-yl)phenyl)piperidin-4-yl)methyl)piperazin-1-yl)phenyl)-1H-pyrazolo[3,4-b]pyridin-3-yl)-2-methylphenyl)ethyl)-1,2,4-oxadiazole-3-carboxamide]	62.1	–
Cc1cc(-c2n[nH]c3ncc(-c4ccc(N5CCN(CCc6ccc([C@@H]7CCC(=O)NC7=O)cn6)CC5)cc4)cc23)ccc1[C@@H](C)NC(=O)c1noc(C(C)(C)C)n1 [Example 139, 5-(tert-butyl)-N—((R)-1-(4-(5-(4-(4-(2-(5-((S)-2,6-dioxopiperidin-3-yl)pyridin-2-yl)ethyl)piperazin-1-yl)phenyl)-1H-pyrazolo[3,4-b]pyridin-3-yl)-2-methylphenyl)ethyl)-1,2,4-oxadiazole-3-carboxamide]	1.03	–

— patent publication US20230322761A1, “DEGRADATION OF BRUTON'S TYROSINE KINASE (BTK) BY CONJUGATION OF BTK INHIBITORS WITH E3 LIGASE LIGAND AND METHODS OF USE” (BEIGENE, LTD., priority 2020, published 2023)
